Data set [1] is described as follows: Relative humidity stability at ambient temperature, analyzed by XRPD. Format: physicochemical. The text has this:
Upon completion of the duration allowed, the samples were immediately analyzed by XRPD.

For data set [2] the following is noted: solution supersaturated with respect to pterostilbene; after three days. As to the method: Solubility and concentration measurements were performed using ultraviolet (UV) spectroscopy on a Spectramax Microplate Reader.
Appropriate dilutions with water were made as necessary to maintain absorbance readings within the standard curve. All experiments were repeated three times to evaluate the standard deviation, while particle size was not controlled for any of the experiments.
Aliquots were centrifuged; supernatant was extracted, and appropriate dilutions were made to maintain absorbance readings within the standard curve. […] All experiments were repeated three times to evaluate the standard deviation, while particle size was not controlled for any of the experiments.

For data set [3] the following is noted: Lopez-Nicolas 2009; cited from earlier work.
The conditions of data set [4]: in vivo; cited from earlier work.
The format of data set [5] is physicochemical. As to the method: Intrinsic dissolution in 900 mL water at ambient conditions was also attempted. […] Therefore, a concentration vs. time and intrinsic dissolution rate value were unobtainable at these conditions.

For `Cn1c(=O)c2c(ncn2C)n(C)c1=O` [caffeine, reference compound], the “Conversion to hydrate at 75% RH” value in data set [1] (75% RH, up to four weeks) is “does not display signs of conversion”. The “Time of partial conversion to hydrate at 94% RH” value in data set [1] (94% RH) was “between one and three days”. In data set [1] (98% RH), the “Time of conversion to hydrate at 98% RH” value is given as “less than one day”.
Regarding `COc1cc(/C=C/c2ccc(O)cc2)cc(OC)c1.Cn1c(=O)c2c(ncn2C)n(C)c1=O` [cocrystal 1 (Form I), pterostilbene:caffeine], the “Outcome of slurrying in water” value in data set [2] is reported as “precipitation of pterostilbene”. Besides, the “Results (form by XRPD)” value is reported as “cocrystal 1 (Form I), no caffeine hydrate” in data set [1] (additional stress at 98% RH, 1 week (listed after 75% RH, 1 week)); “cocrystal 1 (Form I), no caffeine hydrate” in data set [1] (additional stress at 98% RH, 4 weeks (listed after 94% RH, 7 days)); “cocrystal 1 (Form I), no caffeine hydrate” in data set [1] (additional stress at 98% RH, 1 day (listed after 75% RH, 1 day)); “cocrystal 1 (Form I), no caffeine hydrate” in data set [1] (slurry, 2 days).
`COc1cc(/C=C/c2ccc(O)cc2)cc(OC)c1` [pterostilbene, trans-3,5-dimethoxy-4′-hydroxystilbene]: the Solubility in water result in data set [3] is reported as “poor solubility in water”. In data set [4], the Bioavailability entry was “poor bioavailability”.
Regarding “pterostilbene:glutaric acid [cocrystal 3]”, the “XRPD result in intrinsic dissolution” value in data set [5] (900 mL water at ambient conditions, after 30 minutes) is “crystalline pterostilbene”. Moreover, the “XRPD result in powder dissolution” value in data set [5] (slurrying in water at ambient, after 5 minutes) is on record as “crystalline pterostilbene”.

The record behind these values is patent US8415507B2 (priority 2010, dated 2013).
